Patent publication US12077503B2, “Substituted cyclic amides and their use as herbicides” (FMC CORPORATION, priority 2015, dated 2024)

Tests used:
Type in all cases: in vivo
[1] = test system: blackgrass (Alopecurus myosuroides); assay: Test A postemergence; details: Alopecurus myosuroides, post-emergence, 240 h, postemergence, read-out: Blackgrass plant response rating
Outline: (§1)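 Preemergence soil spray on seeded pots or post-emergence spray on 1–2 leaf plants, in loam–sand blend. Greenhouse ~10 d. Visual rating 0–100 against untreated plants.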

corn (Zea mays) = assay: Test A postemergence; details: Zea mays, post-emergence, 240 h, postemergence, read-out: Corn plant response rating
Outline: as §1

[2] = test system: barnyardgrass (Echinochloa crus-galli); assay: Test A postemergence; details: Echinochloa crus-galli, post-emergence, 240 h, postemergence, read-out: Barnyardgrass plant response rating
Outline: as §1

[3] = test system: ryegrass, Italian (Italian ryegrass, Lolium multiflorum); assay: Test A postemergence; details: Lolium multiflorum, post-emergence, 240 h, postemergence, read-out: Ryegrass, Italian plant response rating
Outline: as §1

[4] = test system: ragweed (common ragweed, Ambrosia elatior); assay: Test A postemergence; details: Ambrosia artemisiifolia, post-emergence, 240 h, postemergence, read-out: Ragweed plant response rating
Outline: as §1

Kochia (Kochia scoparia) [5] = assay: Test A postemergence; details: Bassia scoparia, post-emergence, 240 h, postemergence, read-out: Kochia plant response rating
Outline: as §1

[6] = test system: giant foxtail (Setaria faberii); assay: Test A postemergence; details: Setaria faberi, post-emergence, 240 h, postemergence, read-out: Foxtail, Giant plant response rating
Outline: as §1

[7] = test system: Galium (catchweed bedstraw, Galium aparine); assay: Test A postemergence; details: Galium, post-emergence, 240 h, postemergence, read-out: Galium plant response rating
Outline: as §1

[8] = test system: wheat (Triticum aestivum); assay: Test A postemergence; details: Triticum aestivum, post-emergence, 240 h, postemergence, read-out: Wheat plant response rating
Outline: as §1

[9] = test system: pigweed (Amaranthus retroflexus); assay: Test A preemergence; details: Amaranthus retroflexus, pre-emergence, 240 h, preemergence, 0 to 100 scale where 0 is no effect and 100 is complete control, read-out: Pigweed plant response rating
[10] = test system: barnyardgrass (Echinochloa crus-galli); assay: Test A preemergence; details: Echinochloa crus-galli, pre-emergence, 240 h, preemergence, 0 to 100 scale where 0 is no effect and 100 is complete control, read-out: Barnyardgrass plant response rating
Outline: as §1

[11] = test system: ryegrass, Italian (Italian ryegrass, Lolium multiflorum); assay: Test A preemergence; details: Lolium multiflorum, pre-emergence, 240 h, preemergence, 0 to 100 scale where 0 is no effect and 100 is complete control, read-out: Ryegrass, Italian plant response rating
Outline: as §1

[12] = test system: ragweed (common ragweed, Ambrosia elatior); assay: Test A preemergence; details: Ambrosia artemisiifolia, pre-emergence, 240 h, preemergence, 0 to 100 scale where 0 is no effect and 100 is complete control, read-out: Ragweed plant response rating
Outline: as §1

Kochia (Kochia scoparia) [13] = assay: Test A preemergence; details: Bassia scoparia, pre-emergence, 240 h, preemergence, 0 to 100 scale where 0 is no effect and 100 is complete control, read-out: Kochia plant response rating
Outline: as §1

[14] = test system: giant foxtail (Setaria faberii); assay: Test A preemergence; details: Setaria faberi, pre-emergence, 240 h, preemergence, 0 to 100 scale where 0 is no effect and 100 is complete control, read-out: Foxtail, Giant plant response rating
Outline: as §1

[15] = 125 g ai/ha, visual injury on 0 to 100 scale (0 no effect, 100 complete control), approx. 10 d
[16] = 500 g ai/ha, 0 to 100 scale, 0 is no effect, 100 is complete control

Work on `O=C1NC[C@H](c2ccc(F)c(OC(F)(F)C(F)F)c2)[C@H]1C(=O)Nc1cccc(F)c1F` [Compound 1131] yielded a pest or weed control at 125 g/ha [1, 15] of 40%, a pest or weed control at 500 g/ha [1, 16] of 60% and a plant injury at 125 g/ha (corn (Zea mays); [15]) of 70%. For the same compound, the plant injury at 500 g/ha (corn (Zea mays); [16]) was 80%, the pest or weed control at 125 g/ha [2, 15] was 70% and the pest or weed control at 500 g/ha [2, 16] was 90%. It also gave a pest or weed control at 125 g/ha [3, 15] of 0%, a pest or weed control at 500 g/ha [3, 16] of 50% and a pest or weed control at 125 g/ha [4, 15] of 50%. The pest or weed control at 500 g/ha [4, 16] was 80%, the pest or weed control at 125 g/ha (Kochia (Kochia scoparia) [5]; [15]) was 60% and the pest or weed control at 500 g/ha (Kochia (Kochia scoparia) [5]; [16]) was 70%. The pest or weed control at 125 g/ha [6, 15] was 80%, the pest or weed control at 500 g/ha [6, 16] was 90% and the pest or weed control at 125 g/ha [7, 15] was 60%. For the same compound, the pest or weed control at 500 g/ha [7, 16] was 60%, the plant injury at 125 g/ha [8, 15] was 50% and the plant injury at 500 g/ha [8, 16] was 70%. It also gave a pest or weed control at 125 g/ha ([9]; 125 g ai/ha, approx. 10 d) of 80%, a pest or weed control at 500 g/ha ([9]; 500 g ai/ha) of 90% and a pest or weed control at 125 g/ha ([10]; 125 g ai/ha, approx. 10 d) of 90%. For the same compound, the pest or weed control at 500 g/ha ([10]; 500 g ai/ha) was 90%, the pest or weed control at 125 g/ha ([11]; 125 g ai/ha, approx. 10 d) was 0% and the pest or weed control at 500 g/ha ([11]; 500 g ai/ha) was 70%. For the same compound, the pest or weed control at 125 g/ha ([12]; 125 g ai/ha, approx. 10 d) was 60%, the pest or weed control at 500 g/ha ([12]; 500 g ai/ha) was 80% and the pest or weed control at 125 g/ha (Kochia (Kochia scoparia) [13]; 125 g ai/ha, approx. 10 d) was 100%. The pest or weed control at 500 g/ha (Kochia (Kochia scoparia) [13]; 500 g ai/ha) was 90%, the pest or weed control at 125 g/ha ([14]; 125 g ai/ha, approx. 10 d) was 90% and the pest or weed control at 500 g/ha ([14]; 500 g ai/ha) was 90%.
